Measurements reported in patent US12685734B2, “N6-methyladenosine regulators in uterine fibroids” (The University of Chicago, priority 2021, dated 2026).

Tests used:
[1] = test system: Eker rats carrying Tsc2 germline mutation; conditions: early-life exposure during development of the uterus, cited from earlier work
HuLM cells = experiment: Cell proliferation, trypan blue exclusion assay, METTL3 inhibition; assay type: cell-based, human; conditions: 1-10 μM, 24 hours, vs DMSO vehicle, FIG. 9
Method: The HuLM cell line was cultured and maintained in phenol red-free, Dulbecco's Modified Eagle Medium: Nutrient Mixture F-12. The cells were grown at 37° C. and 5% CO2 in an incubator with saturating humidity.
Cell proliferation was measured using trypan blue exclusion assay. The cells were cultured in the absence or presence of the METTL3 inhibitor STM2457 at a dose range from 1-10 μM for 24 hours. DMSO was used as a vehicle control. Cells were trypsinized, collected by centrifuge, and resuspended in serum-free medium. Equal volumes of 0.4% trypan blue and cell suspension were mixed and cells were counted using a hemacytometer. This assay was performed three times in triplicate.

Compound | tumor multiplicity and size ([1]; genetically predisposed animals) | tumor-suppressor-gene penetrance ([1]; spontaneous frequency 65%) | cell proliferation of UF cells (relative cell numbers) (HuLM cells)
CC/C(=C(/CC)c1ccc(O)cc1)c1ccc(O)cc1 [diethylstilbestrol] | increases | > 90% | –
STM2457 | – | – | decreases the cell proliferation
